Source: patent publication US12544395B2, “Combination compositions comprising a beta-lactamase inhibitor and uses thereof” (priority 2018, dated 2026)

Experiments:
Assay type in all cases: cell-based
E. coli 3327 = test: Broth microdilution MIC (strain enzymes: TEM-1, SHV-12)
K. oxytoca 169219 = test: Broth microdilution MIC (strain enzymes: TEM-1, CTXM-15)
E. coli SI-PBLII = test: Broth microdilution MIC (strain enzymes: CTX-M2, TEM-1)
K. pneumoniae 153239 = test: Broth microdilution MIC (strain enzymes: SHV-11, TEM-1)
K. oxytoca 496 #2 = test: Broth microdilution MIC (strain enzymes: SHV-105, TEM-1)
K. pneumoniae BAA 1705 = test: Broth microdilution MIC (strain KPC-producing)

CCC(=O)N[C@H]1Cc2cccc(C(=O)O)c2OB1O [Compound 2, (R)-2-hydroxy-3-propionamido-3,4-dihydro-2H-benzo[e][1,2]oxaborinine-8-carboxylic acid]
MIC of cefalexin (LEX) (E. coli 3327; with inhibitor at 1 μg/mL): 0.5 µg/mL
MIC of cefdinir (CDR) (E. coli 3327; with inhibitor at 1 μg/mL): 0.5 µg/mL
MIC of cefixime (CFM) (E. coli 3327; with inhibitor at 1 μg/mL): 1 µg/mL
MIC of ceftibuten (CTB) (E. coli 3327; with inhibitor at 1 μg/mL): 0.25 µg/mL
MIC of cefalexin (LEX) (E. coli 3327; with inhibitor at 2 μg/mL): 0.5 µg/mL
MIC of cefdinir (CDR) (E. coli 3327; with inhibitor at 2 μg/mL): 0.5 µg/mL
MIC of cefixime (CFM) (E. coli 3327; with inhibitor at 2 μg/mL): 0.5 µg/mL
MIC of ceftibuten (CTB) (E. coli 3327; with inhibitor at 2 μg/mL): 0.25 µg/mL
MIC of cefalexin (LEX) (E. coli 3327; with inhibitor at 4 μg/mL): 0.5 µg/mL
MIC of cefdinir (CDR) (E. coli 3327; with inhibitor at 4 μg/mL): 0.5 µg/mL
MIC of cefixime (CFM) (E. coli 3327; with inhibitor at 4 μg/mL): 0.5 µg/mL
MIC of ceftibuten (CTB) (E. coli 3327; with inhibitor at 4 μg/mL): 0.25 µg/mL
MIC of cefalexin (LEX) (K. oxytoca 169219; with inhibitor at 1 μg/mL): 1 µg/mL
MIC of cefdinir (CDR) (K. oxytoca 169219; with inhibitor at 1 μg/mL): 1 µg/mL
MIC of cefixime (CFM) (K. oxytoca 169219; with inhibitor at 1 μg/mL): 0.25 µg/mL
MIC of ceftibuten (CTB) (K. oxytoca 169219; with inhibitor at 1 μg/mL): 0.03 µg/mL
MIC of cefalexin (LEX) (K. oxytoca 169219; with inhibitor at 2 μg/mL): 0.5 µg/mL
MIC of cefdinir (CDR) (K. oxytoca 169219; with inhibitor at 2 μg/mL): 0.5 µg/mL
MIC of cefixime (CFM) (K. oxytoca 169219; with inhibitor at 2 μg/mL): 0.125 µg/mL
MIC of ceftibuten (CTB) (K. oxytoca 169219; with inhibitor at 2 μg/mL): 0.0149 µg/mL
MIC of cefalexin (LEX) (K. oxytoca 169219; with inhibitor at 4 μg/mL): 0.5 µg/mL
MIC of cefdinir (CDR) (K. oxytoca 169219; with inhibitor at 4 μg/mL): 0.5 µg/mL
MIC of cefixime (CFM) (K. oxytoca 169219; with inhibitor at 4 μg/mL): 0.125 µg/mL
MIC of ceftibuten (CTB) (K. oxytoca 169219; with inhibitor at 4 μg/mL): 0.0149 µg/mL
MIC of cefalexin (LEX) (E. coli SI-PBLII; with inhibitor at 1 μg/mL): 0.25 µg/mL
MIC of cefdinir (CDR) (E. coli SI-PBLII; with inhibitor at 1 μg/mL): 0.25 µg/mL
MIC of cefixime (CFM) (E. coli SI-PBLII; with inhibitor at 1 μg/mL): 0.25 µg/mL
MIC of ceftibuten (CTB) (E. coli SI-PBLII; with inhibitor at 1 μg/mL): 0.125 µg/mL
MIC of cefalexin (LEX) (E. coli SI-PBLII; with inhibitor at 2 μg/mL): 0.25 µg/mL
MIC of cefdinir (CDR) (E. coli SI-PBLII; with inhibitor at 2 μg/mL): 0.25 µg/mL
MIC of cefixime (CFM) (E. coli SI-PBLII; with inhibitor at 2 μg/mL): 0.25 µg/mL
MIC of ceftibuten (CTB) (E. coli SI-PBLII; with inhibitor at 2 μg/mL): 0.125 µg/mL
MIC of cefalexin (LEX) (E. coli SI-PBLII; with inhibitor at 4 μg/mL): 0.25 µg/mL
MIC of cefdinir (CDR) (E. coli SI-PBLII; with inhibitor at 4 μg/mL): 0.25 µg/mL
MIC of cefixime (CFM) (E. coli SI-PBLII; with inhibitor at 4 μg/mL): 0.25 µg/mL
MIC of ceftibuten (CTB) (E. coli SI-PBLII; with inhibitor at 4 μg/mL): 0.125 µg/mL
MIC of cefalexin (LEX) (K. pneumoniae 153239; with inhibitor at 1 μg/mL): 0.5 µg/mL
MIC of cefdinir (CDR) (K. pneumoniae 153239; with inhibitor at 1 μg/mL): 0.5 µg/mL
MIC of cefixime (CFM) (K. pneumoniae 153239; with inhibitor at 1 μg/mL): 0.125 µg/mL
MIC of ceftibuten (CTB) (K. pneumoniae 153239; with inhibitor at 1 μg/mL): 0.06 µg/mL
MIC of cefalexin (LEX) (K. pneumoniae 153239; with inhibitor at 2 μg/mL): 0.25 µg/mL
MIC of cefdinir (CDR) (K. pneumoniae 153239; with inhibitor at 2 μg/mL): 0.25 µg/mL
MIC of cefixime (CFM) (K. pneumoniae 153239; with inhibitor at 2 μg/mL): 0.5 µg/mL
MIC of ceftibuten (CTB) (K. pneumoniae 153239; with inhibitor at 2 μg/mL): 0.125 µg/mL
MIC of cefalexin (LEX) (K. pneumoniae 153239; with inhibitor at 4 μg/mL): 0.25 µg/mL
MIC of cefdinir (CDR) (K. pneumoniae 153239; with inhibitor at 4 μg/mL): 0.25 µg/mL
MIC of cefixime (CFM) (K. pneumoniae 153239; with inhibitor at 4 μg/mL): 0.25 µg/mL
MIC of ceftibuten (CTB) (K. pneumoniae 153239; with inhibitor at 4 μg/mL): 0.06 µg/mL
MIC of cefalexin (LEX) (K. oxytoca 496 #2; with inhibitor at 1 μg/mL): 0.25 µg/mL
MIC of cefdinir (CDR) (K. oxytoca 496 #2; with inhibitor at 1 μg/mL): 0.25 µg/mL
MIC of cefixime (CFM) (K. oxytoca 496 #2; with inhibitor at 1 μg/mL): 0.25 µg/mL
MIC of ceftibuten (CTB) (K. oxytoca 496 #2; with inhibitor at 1 μg/mL): 0.125 µg/mL
MIC of cefalexin (LEX) (K. oxytoca 496 #2; with inhibitor at 2 μg/mL): 0.25 µg/mL
MIC of cefdinir (CDR) (K. oxytoca 496 #2; with inhibitor at 2 μg/mL): 0.25 µg/mL
MIC of cefixime (CFM) (K. oxytoca 496 #2; with inhibitor at 2 μg/mL): 0.125 µg/mL
MIC of ceftibuten (CTB) (K. oxytoca 496 #2; with inhibitor at 2 μg/mL): 0.125 µg/mL
MIC of cefalexin (LEX) (K. oxytoca 496 #2; with inhibitor at 4 μg/mL): 0.06 µg/mL
MIC of cefdinir (CDR) (K. oxytoca 496 #2; with inhibitor at 4 μg/mL): 0.06 µg/mL
MIC of cefixime (CFM) (K. oxytoca 496 #2; with inhibitor at 4 μg/mL): 0.06 µg/mL
MIC of ceftibuten (CTB) (K. oxytoca 496 #2; with inhibitor at 4 μg/mL): 0.125 µg/mL
MIC of cefalexin (LEX) (K. pneumoniae BAA 1705; with inhibitor at 1 μg/mL): 4 µg/mL
MIC of cefdinir (CDR) (K. pneumoniae BAA 1705; with inhibitor at 1 μg/mL): 4 µg/mL
MIC of cefixime (CFM) (K. pneumoniae BAA 1705; with inhibitor at 1 μg/mL): 0.5 µg/mL
MIC of ceftibuten (CTB) (K. pneumoniae BAA 1705; with inhibitor at 1 μg/mL): 0.5 µg/mL
MIC of cefalexin (LEX) (K. pneumoniae BAA 1705; with inhibitor at 2 μg/mL): 2 µg/mL
MIC of cefdinir (CDR) (K. pneumoniae BAA 1705; with inhibitor at 2 μg/mL): 2 µg/mL
